How the values were obtained:
Assay in all cases: relative viability (nuclei count vs DMSO), 5 days (fraction); higher = more cells survive
BMX-IN-1 + OSI-027 = compound: C=CC(=O)Nc1cc(-n2c(=O)ccc3cnc4ccc(-c5ccc(NS(C)(=O)=O)cc5)cc4c32)ccc1C [BMX-IN-1] + COc1cccc2cc(-c3nc([C@H]4CC[C@H](C(=O)O)CC4)n4ncnc(N)c34)[nH]c12 [OSI-027] (partner 0.5 µM)
How it was run: (§1)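 Dosing by pin tool came one day after lung cancer cell lines were seeded in 1536-well plates, using either one drug or a fixed anchor-drug dose plus five library-drug doses (not always all listed) in √10 steps. After 5 days, nuclei were counted on 4× images. Relative viability is treated-well nuclei count divided by vehicle-well nuclei count, and values are medians of duplicate plates.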

PAC-1 + Foretinib = compound: C=CCc1cccc(/C=N/NC(=O)CN2CCN(Cc3ccccc3)CC2)c1O [PAC-1] + COc1cc2c(Oc3ccc(NC(=O)C4(C(=O)Nc5ccc(F)cc5)CC4)cc3F)ccnc2cc1OCCCN1CCOCC1 [Foretinib] (partner 0.25 µM)
How it was run: as §1

Ibrutinib + Dasatinib = compound: C=CC(=O)N1CCC[C@@H](n2nc(-c3ccc(Oc4ccccc4)cc3)c3c(N)ncnc32)C1 [Ibrutinib] + Cc1nc(Nc2ncc(C(=O)Nc3c(C)cccc3Cl)s2)cc(N2CCN(CCO)CC2)n1 [Dasatinib] (partner 0.075 µM)
How it was run: as §1

PAC-1 + Lapatinib = compound: C=CCc1cccc(/C=N/NC(=O)CN2CCN(Cc3ccccc3)CC2)c1O [PAC-1] + CS(=O)(=O)CCNCc1ccc(-c2ccc3ncnc(Nc4ccc(OCc5cccc(F)c5)c(Cl)c4)c3c2)o1 [Lapatinib] (partner 2 µM)
How it was run: as §1

Cell Line | relative viability (BMX-IN-1 + OSI-027; first compound 0.02 µM) | relative viability (BMX-IN-1 + OSI-027; first compound 0.2 µM) | relative viability (BMX-IN-1 + OSI-027; first compound 0.6325 µM) | relative viability (BMX-IN-1 + OSI-027; first compound 2 µM) | relative viability (PAC-1 + Foretinib; first compound 0.02 µM) | relative viability (PAC-1 + Foretinib; first compound 0.06325 µM) | relative viability (PAC-1 + Foretinib; first compound 0.2 µM) | relative viability (PAC-1 + Foretinib; first compound 2 µM) | relative viability (Ibrutinib + Dasatinib; first compound 0.01581 µM) | relative viability (Ibrutinib + Dasatinib; first compound 0.05 µM) | relative viability (Ibrutinib + Dasatinib; first compound 0.1581 µM) | relative viability (Ibrutinib + Dasatinib; first compound 0.5 µM) | relative viability (PAC-1 + Lapatinib; first compound 0.02 µM) | relative viability (PAC-1 + Lapatinib; first compound 0.06325 µM) | relative viability (PAC-1 + Lapatinib; first compound 0.2 µM) | relative viability (PAC-1 + Lapatinib; first compound 2 µM) | relative viability (Ibrutinib + Dasatinib; first compound 0.005 µM)
NCI-H596 | 0.924 | 0.856 | 0.781 | 0.81 | 0.767 | 0.832 | 0.876 | 0.894 | 0.545 | 0.579 | 0.5 | 0.564 | 1.04 | 1.03 | 1.01 | 1.05 | 
NCI-H647 | 0.722 | 0.642 | 0.736 | 0.571 | 1.17 | 1.08 | 1.29 | 1.31 | 0.164 | 0.167 | 0.206 | 0.174 | 0.851 | 1.05 | 0.866 | 0.934 | 
NCI-H650 | 0.511 | 0.508 | 0.594 | 0.531 | 1.08 | 1.07 | 0.992 | 0.988 | 0.484 | 0.378 | 0.491 | 0.465 | 1.09 | 1.05 | 0.668 | 0.747 | 0.408
NCI-H661 | 0.638 | 0.798 | 0.772 | 0.761 | 1.05 | 0.963 | 0.967 | 0.957 | 0.581 | 0.417 | 0.842 | 0.425 | 0.313 | 0.541 | 0.552 | 0.445 | 0.626
NCI-H727 | 0.846 | 0.597 | 0.648 | 0.612 | 0.811 | 1.02 | 0.937 | 0.881 | 0.393 | 0.424 |  | 0.298 | 0.717 | 0.674 | 0.801 | 0.884 | 
NCI-H838 | 0.424 | 0.389 | 0.438 | 0.389 | 1.06 | 0.953 | 1.01 | 1.06 | 0.286 | 0.297 | 0.251 | 0.289 | 0.931 | 0.968 | 0.83 | 1.01 | 0.327
NCI-H1355 | 0.386 | 0.393 | 0.482 | 0.424 | 0.921 | 0.983 | 0.936 | 1.04 | 0.647 | 0.718 | 0.623 | 0.677 | 0.97 | 0.977 | 0.929 | 1.11 | 0.527
NCI-H1395 | 0.645 | 0.64 | 0.647 | 0.637 | 0.937 | 1.02 | 0.875 | 0.873 | 0.401 | 0.383 | 0.392 | 0.417 | 1.12 | 1 | 0.881 | 1.01 | 0.419
NCI-H1437 | 1.05 | 0.912 | 0.916 | 0.845 | 1.19 | 1.23 | 1.3 | 1.1 | 0.39 | 0.375 | 0.217 | 0.362 | 0.758 | 0.828 | 0.751 | 0.679 | 0.313
NCI-H1563 | 0.838 | 0.757 | 0.697 | 0.642 | 0.928 | 1 | 0.976 | 0.935 | 0.456 | 0.507 | 0.46 | 0.415 | 0.967 | 0.91 | 1.07 | 1.01 | 0.431
NCI-H1650 | 0.69 | 0.544 | 0.84 | 0.606 | 0.892 | 1.31 | 1.22 | 0.732 | 0.281 | 0.321 | 0.369 | 0.346 | 0.749 | 0.875 | 0.675 | 0.668 | 0.304
NCI-H1651 | 0.9 | 0.426 | 0.782 | 0.582 | 0.796 | 0.72 | 0.735 | 0.917 | 0.386 | 0.368 | 0.352 | 0.428 | 0.757 | 0.8 | 0.725 | 0.855 | 0.446
NCI-H1666 | 0.948 | 1.01 | 0.843 | 0.951 | 0.975 | 0.979 | 0.995 | 0.95 | 0.807 | 0.803 | 0.896 | 0.706 | 0.613 | 0.608 | 0.911 | 0.663 | 0.841
NCI-H1734 | 0.709 | 0.64 | 0.632 | 0.621 | 0.759 | 0.779 | 0.762 | 0.759 | 0.473 | 0.506 | 0.521 | 0.454 | 1.12 | 0.987 | 1.04 | 1.01 | 0.36
NCI-H1755 | 0.685 | 0.787 | 0.765 | 0.721 | 0.948 | 0.976 | 0.948 | 0.949 | 0.365 | 0.444 | 0.484 | 0.383 | 0.987 | 1.03 | 1.02 | 1.05 | 0.478
NCI-H1793 | 0.271 | 0.281 | 0.324 | 0.332 | 0.651 | 0.504 | 0.646 | 0.559 | 0.371 | 0.358 | 0.389 | 0.303 | 0.48 | 0.753 | 0.62 | 0.652 | 
NCI-H1915 | 0.647 | 0.714 | 0.805 | 0.619 | 1.09 | 1.08 | 1.02 | 1.08 | 0.292 | 0.288 | 0.319 | 0.369 | 0.971 | 0.995 | 0.917 | 0.92 | 0.287
NCI-H1944 | 0.417 | 0.405 | 0.502 | 0.452 | 0.882 | 0.802 | 0.783 | 0.891 | 0.18 | 0.206 | 0.178 | 0.193 | 0.754 | 0.798 | 0.768 | 0.867 | 0.21
